Experiments:
tumor neovascularization = assay: Tumor neovascularization in tumor-bearing mice; settings: mouse, in vivo
Text: These hitherto unknown attributes were detected while studying the effects of hypericin and of helianthrone derivatives on breast adenocarcinoma tumors induced in mice with the DA-3^HI cell line and on murine anaplastic squamous carcinoma tumors induced with the SQ-2 cell line. Both are highly metastatic tumors and if surgically resected after having reached a diameter larger than 5 mm, the mice will go on to develop metastases in the lungs and liver. The metastases cause death of the animals within approximately two months following surgery.
By preventing development of new blood vessels to supply a growing metastasis, the rapidly growing metastatic focus is deprived of nutrients and oxygen for its rapidly multiplying cells and the lesion degenerates.

[1] = system: rat aorta rings, endothelial cell microvessels; assay: Rat aorta ring microvessel formation in fibrin gel; type: cell-based; settings: 0.1-10 μg/ml (0.2-20 μM)
Text: Rat aorta is carved into rings which are embedded in fibrin gels and cultured in MCDB 131 medium. Endothelial cells that detach from the aorta rings generate branching microvessels according to a method previously described (Nicosia R. F. and Ottinetti A. Growth of microvessels in serum-free matrix culture of rat aorta. Laboratory Investigation 63: 115, 1990).

Cc1ccc2c(=O)c3c(O)cc(O)c4c5c(O)cc(O)c6c(=O)c7ccc(C)cc7c(c65)c(c2c1)c34 [dimethyl tetrahydroxyhelianthrone, 10,13-dimethyl-1,3,4,6-tetrahydroxyhelianthrone]
neovascularization of tumors (tumor neovascularization): prevented neovascularization
formation of organized microvessels [1]: inhibition of formation of the organized microvessels

From patent US6867235B2, “Helianthrone derivatives as anti-cancer agents” (Yeda Research and Development Co. Ltd., priority 2000, dated 2005)
